The source of these data is patent publication US5856166A, “Streptomyces proteases and methods for improved secretion of recombinantly-expressed proteins” (Cangene Corporation, priority 1994, dated 1999).

Where a SMILES comes first, the peptide text is derived from it. [ ]: non-standard residue; d: D form. The star is where a group is joined. Sta = CC(C)C[C@H](N)[C@@H](O)CC(=O)O; pNA = O=[N+]([O-])c1ccc(N*)cc1; AMC = Cc1cc(=O)oc2cc(N*)ccc12; Isovaleryl = CC(C)CC(=O)*; βNA = c1ccc2cc(N*)ccc2c1; Boc = CC(C)(C)OC(=O)*

The first experiment addresses T1, Tap (tripeptidyl aminopeptidase) (Streptomyces lividans, UniProt Q54410).
T1 construct: An autolytic tripeptide cleavage removing APA after signal peptide removal would yield the N-terminal found for the secreted protease; made in house; host or cells: Streptomyces lividans 66 (wild-type strain, native secreted enzyme purified from the broth)
T1 sequence (Q54410 40-537): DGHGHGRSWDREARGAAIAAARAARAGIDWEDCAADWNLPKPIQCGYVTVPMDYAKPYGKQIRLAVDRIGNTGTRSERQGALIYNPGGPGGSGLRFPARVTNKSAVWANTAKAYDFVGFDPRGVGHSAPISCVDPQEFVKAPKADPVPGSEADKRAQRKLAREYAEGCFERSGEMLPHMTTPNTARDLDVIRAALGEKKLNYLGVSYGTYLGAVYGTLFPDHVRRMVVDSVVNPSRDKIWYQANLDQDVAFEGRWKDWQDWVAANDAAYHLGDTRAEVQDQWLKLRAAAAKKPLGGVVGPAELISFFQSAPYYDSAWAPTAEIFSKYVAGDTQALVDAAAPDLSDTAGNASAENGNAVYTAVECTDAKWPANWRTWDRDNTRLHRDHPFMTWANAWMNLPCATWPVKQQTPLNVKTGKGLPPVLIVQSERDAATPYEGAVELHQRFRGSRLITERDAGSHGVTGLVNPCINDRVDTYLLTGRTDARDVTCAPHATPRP
The experiment is described as follows: Inhibition of TAP in the APA-pNA assay (protease inhibitor survey, Table I). To be noted: inhibitor 0.1 mM; preincubated 15 minutes at 22° C.; substrate APA-pNA; enzyme only = 100. It is filed as biochemical, S. lividans 66. The method, then:
The protease and inhibitor were preincubated for 15 minutes at 22° C. Substrate was added and the mixture was incubated at 37° C. Activity was measured by monitoring the change in absorbance at λ=405 nm.
(§1) The assay was conducted in a 96 well microtiter plate. To each well in the assay, 50 ul 100 mM Tris-HCl, pH 8.0, were added followed by 25 ul 3.2 mM APA-pNA. 25 ul of Tap were added to the wells and the absorbance was read at 405 nm. The assays were incubated at 37° C. for 2 hours. The absorbance was read at 405 nm. The activity (release of p-nitroaniline) was calculated from the change in absorbance.
In the case of `[Cl][Hg][Cl]` [HgCl1], the “Residual Activity” value stood at 99.

On to Chymostatin, for which the “Residual Activity” value is on record as 98.

The experiment is the same for the next values; noted with them: inhibitor 0.1 mM; preincubated 15 minutes at 22° C.; substrate APA-pNA; enzyme only = 100; read-out: Residual Activity.
Regarding `CC(C)C[C@H](NC(=O)N[C@H](C(=O)N[C@@H](CCC(N)=O)C(=O)N[C@@H](C)C=O)[C@@H]1CCNC(=N)N1)C(=O)O` [Elastatinal], the remaining activity at 100 µM is 97%.

Consider `CC(C)CC(=O)N[C@H](C(=O)N[C@H](C(=O)N[C@@H](CC(C)C)[C@@H](O)CC(=O)N[C@@H](C)C(=O)N[C@@H](CC(C)C)[C@@H](O)CC(=O)O)C(C)C)C(C)C` [Pepstatin] (Isovaleryl-VV[Sta]A[Sta]-OH), for which the remaining activity at 100 µM was found to be 95%.

Still in this experiment, the particulars now being: inhibitor 1.0 mM; preincubated 15 minutes at 22° C.; substrate APA-pNA; enzyme only = 100.
With `[Ca+2].[Cl-].[Cl-]` [CaCl2], the “Residual Activity” value was 96.

For the compound `[Cl-].[Cl-].[Co+2]` [CoCl2], the “Residual Activity” value came to 98.

As to `[Cl][Hg][Cl]` [HgCl1], the “Residual Activity” value was 93.

Staying with this experiment, now noted: inhibitor 1.0 mM; preincubated 15 minutes at 22° C.; substrate APA-pNA; enzyme only = 100; read-out: Residual Activity.
`OC(CS)C(O)CS` (stereo not drawn) [DTT]: the remaining activity at 1000 µM stood at 86%.

Staying with this experiment, now noted: inhibitor 10 mM; preincubated 15 minutes at 22° C.; substrate APA-pNA; enzyme only = 100.
In the case of `[Ca+2].[Cl-].[Cl-]` [CaCl2], the “Residual Activity” value turned out to be 97.

In the case of `[Cl-].[Cl-].[Co+2]` [CoCl2], the “Residual Activity” value came to 97.

The experiment is the same for the next values; noted with them: inhibitor 10 mM; preincubated 15 minutes at 22° C.; substrate APA-pNA; enzyme only = 100; read-out: Residual Activity.
For the compound `N=C(N)c1ccccc1` [Benzamidine], the remaining activity at 10000 µM amounted to 94%.

The experiment is the same for the next values; noted with them: read-out: Residual Activity.
Take `O=C(O)CN(CCN(CC(=O)O)CC(=O)O)CC(=O)O` [EDTA, Ethylenediaminetetraacetic acid]: the remaining activity at 1000 µM was 95% and the remaining activity at 10000 µM came out at 95%.

The next experiment addresses T1, Tap (tripeptidyl aminopeptidase). The experiment is described as follows: Release of reporter group from synthetic substrates by pure Tap. In kind it is biochemical, S. lividans 66.
Conditions: not given
The method, then:
The enzyme was also active when APM-pNA, APA-AMC, APS-bNA, GPL-bNA, and SPA-bNA were used as substrates. […] The enzyme only released the reporter group from substrates with a free amino terminal.
as §1
Regarding `C[C@H](N)C(=O)Nc1ccc([N+](=O)[O-])cc1` [A-pNA, L-alanine p-nitroanilide], the “release of reporter group when used as substrate of Tap” value (“release of reporter group when used” for short) is given as “did not release the reporter group”.

With `C[C@H](N)C(=O)N[C@@H](C)C(=O)Nc1ccc([N+](=O)[O-])cc1` [AA-pNA, L-alanyl-L-alanine p-nitroanilide] (H-Ala-Ala-pNA), the “release of reporter group when used” value was “did not release the reporter group”.

Consider `C[C@H](N)C(=O)N[C@@H](C)C(=O)N1CCC[C@H]1C(=O)N[C@@H](C)C(=O)Nc1ccc([N+](=O)[O-])cc1` [AAPA-pNA, L-alanyl-L-alanyl-L-prolyl-L-analine p-nitroanilide] (H-AAPA-pNA), for which the “release of reporter group when used” value was “did not release the reporter group”.

With `Cc1cc(=O)oc2cc(NC(=O)[C@H](C)NC(=O)[C@@H]3CCCN3C(=O)[C@H](C)N)ccc12` [APA-AMC, L-alanyl-L-prolyl-L-alanine 7-amino-4-methylcoumarin] (H-Ala-Pro-Ala-{AMC}), the “release of reporter group when used” value was “active”.

Consider `C[C@H](N)C(=O)N1CCC[C@H]1C(=O)N[C@@H](C)C(=O)Nc1ccc([N+](=O)[O-])cc1` [APApNA, L-alanyl-L-prolyl-L-alanine p-nitroanilide] (H-Ala-Pro-Ala-pNA), for which the “release of reporter group when used” value is “releases p-nitroaniline”.

With `CSCC[C@H](NC(=O)[C@@H]1CCCN1C(=O)[C@H](C)N)C(=O)Nc1ccc([N+](=O)[O-])cc1` [APM-pNA, L-alanyl-L-prolyl-L-methione p-nitroanilide] (H-Ala-Pro-Met-pNA), the “release of reporter group when used” value is “active”.

As to `C[C@H](N)C(=O)N1CCC[C@H]1C(=O)N[C@@H](CO)C(=O)Nc1ccc2ccccc2c1` [APS-bNA, L-alanyl-L-prolyl-L-serine beta-naphthylamide] (H-Ala-Pro-Ser-βNA), the “release of reporter group when used” value is “active”.

Consider `C[C@H](NC(=O)OC(C)(C)C)C(=O)N[C@@H](C)C(=O)N1CCC[C@H]1C(=O)N[C@@H](C)C(=O)Nc1ccc([N+](=O)[O-])cc1` [Boc-AAPA-pNA, N-t-butoxycarbonyl L-alanyl-L-alanyl-L-prolyl-L-alanine p-nitroanilide] (Boc-AAPA-pNA), for which the “release of reporter group when used” value is listed as “did not release the reporter group”.

Regarding `C[C@H](NC(=O)[C@@H]1CCCN1C(=O)[C@H](C)NC(=O)OC(C)(C)C)C(=O)N[C@@H](CCCNC(=N)N)C(=O)N[C@@H](CO)C(=O)N1CCC[C@H]1C(=O)N[C@@H](C)C(=O)Nc1ccc2ccccc2c1` [Boc-APARSPA-bNA, L-alanyl-L-prolyl-L-analyl-L-arginyl-L-seryl-L-prolyl-L-alanine beta-naphthylamide] (Boc-APARSPA-βNA), the “release of reporter group when used” value was “did not release the reporter group”.

As for `N=C(N)NCCC[C@H](NC(=O)[C@H](Cc1ccccc1)NC(=O)[C@H]1CCCN1)C(=O)Nc1ccc([N+](=O)[O-])cc1` [D-PFR-pNA, D-prolyl-L-phenylalanyl-L-arginine p-nitroanilide] (H-[dP]-Phe-Arg-pNA), the “release of reporter group when used” value is reported as “did not release the reporter group”.

Regarding `NCC(=O)N1CCC[C@H]1C(=O)Nc1ccc([N+](=O)[O-])cc1` [GP-pNA, Glycyl-L-proline p-nitroanilide] (H-Gly-Pro-pNA), the “release of reporter group when used” value is “did not release the reporter group”.

As for `CC(C)C[C@H](NC(=O)[C@@H]1CCCN1C(=O)CN)C(=O)Nc1ccc2ccccc2c1` [GPL-bNA, Glycyl-L-prolyl-L-leucine beta-napthylamide] (H-Gly-Pro-Leu-βNA), the “release of reporter group when used” value was “active”.

For the compound `CC(C)C[C@H](N)C(=O)Nc1ccc([N+](=O)[O-])cc1` [L-pNA, L-leucine p-nitroanilide], the “release of reporter group when used” value was “did not release the reporter group”.

As for `CC(=O)N[C@@H](C)C(=O)N1CCC[C@H]1C(=O)N[C@@H](C)C(=O)Nc1ccc([N+](=O)[O-])cc1` [N-Ac-APA-pNA, N-acetyl-L-alanyl-L-prolyl-L-alanine p-nitroanilide] (Ac-Ala-Pro-Ala-pNA), the “release of reporter group when used” value is “did not release the reporter group”.

Take `N=C(N)NCCC[C@H](NC(=O)c1ccccc1)C(=O)Nc1ccc([N+](=O)[O-])cc1` [N-Bz-R-pNA]: the “release of reporter group when used” value was “did not release the reporter group”.

In the case of `O=C(Nc1ccc([N+](=O)[O-])cc1)[C@@H]1CCCN1` [P-pNA, L-proline p-nitroanilide], the “release of reporter group when used” value is recorded as “did not release the reporter group”.

As for `N=C(N)NCCC[C@H](N)C(=O)Nc1ccc([N+](=O)[O-])cc1` [R-pNA, L-arginine p-nitroanilide], the “release of reporter group when used” value is listed as “did not release the reporter group”.

In the case of `N[C@@H](CO)C(=O)Nc1ccc2ccccc2c1` [S-bNA, L-serine beta-naphthylamide], the “release of reporter group when used” value is recorded as “did not release the reporter group”.

As for `C[C@H](NC(=O)[C@@H]1CCCN1C(=O)[C@@H](N)CO)C(=O)Nc1ccc2ccccc2c1` [SPA-bNA, L-seryl-L-prolyl-L-alanine beta-naphthylamide] (H-Ser-Pro-Ala-βNA), the “release of reporter group when used” value is recorded as “active”.

As to “N-benzoyl-L-alanyl-glycyl-L-arginine p-nitroanilide [N-Bz-VGR-pNA]”, the “release of reporter group when used” value is on record as “did not release the reporter group”.
